Measured values reported in patent publication US20080051419A1, “AMINE DERIVATIVES USEFUL AS ANTICANCER AGENTS” (PFIZER INC., priority 2006, published 2008).
Where two headings read alike, the source gives them in different places.

Target: T1, Akt1 (Homo sapiens, UniProt P31749, S473D)
T1 construct: The version of Akt used in these studies lacks the pleckstrin homology (PH) domain
Assay: Akt1 kinase assay, fluorescence polarization (IMAP)
Type: biochemical
In short: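 His-tagged Akt1 lacking the PH domain, Thr308-prephosphorylated, 1.5 ng per reaction, with 4 μM ATP and 40 nM TAMRA-Crosstide (solution concentrations) in Tris pH 7.5/MgCl2/DTT buffer. Incubated 30 min at ambient temperature; IMAP fluorescence polarization read (544/615 nm). IC50 after subtraction of no-enzyme background.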

[1] = Table 1, concentration bins, read-out: Concentration Range at which exemplary compounds of formula I inhibit Akt kinase activity
[2] = Table 4, read-out: Avg Akt kinase, μM (50% inhibition)
[3] = Table 3, read-out: Avg Akt kinase, μM (50% inhibition)
[4] = average Akt kinase activity (IC50), read-out: Avg Akt kinase, μM (50% inhibition)

T1 sequence (P31749 118-480 S473D limits assumed, species assumed): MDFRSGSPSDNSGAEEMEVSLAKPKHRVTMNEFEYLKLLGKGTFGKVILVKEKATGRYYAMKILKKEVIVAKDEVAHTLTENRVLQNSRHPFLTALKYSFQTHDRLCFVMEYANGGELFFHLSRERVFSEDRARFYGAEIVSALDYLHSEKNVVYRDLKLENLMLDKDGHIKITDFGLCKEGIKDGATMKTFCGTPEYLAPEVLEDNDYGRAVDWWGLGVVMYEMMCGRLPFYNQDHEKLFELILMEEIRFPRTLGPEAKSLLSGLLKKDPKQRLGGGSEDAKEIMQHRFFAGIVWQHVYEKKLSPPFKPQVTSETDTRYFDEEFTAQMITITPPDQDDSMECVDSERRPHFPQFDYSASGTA

Row | IC50 [1] [µM] | IC50 [2] [µM] | IC50 [3] [µM] | IC50 [4] [µM] | Compound
1 | 0.00251 to 0.01 |  |  | 0.00334 | N[C@]1(CNC(=O)c2ccc(F)c(F)c2)CCN(c2ncnc3[nH]cc(Cl)c23)C1 [Example 129, N-{[(3S)-3-amino-1-(5-chloro-7H-pyrrolo[2,3-d]pyrimidin-4-yl)pyrrolidin-3-yl]methyl}-3,4-difluorobenzamide]
2 | 0.0101 to 0.1 |  |  | 0.0623 | Cc1c[nH]c2ncnc(N3CCC(N)(CNC(=O)c4ccccc4)C3)c12 (stereo not shown) [Example 69, N-((3-amino-1-(5-methyl-7H-pyrrolo[2,3-d]pyrimidin-4-yl)pyrrolidin-3-yl)methyl)benzamide]
3 | 0.0101 to 0.1 |  | 0.0134 |  | NC1(CNc2cccc(Oc3ccccc3)c2)CCN(c2ncnc3[nH]cc(Cl)c23)C1 (stereo not shown) [Example 6, 1-(5-Chloro-7H-pyrrolo[2,3-d]pyrimidin-4-yl)-3-[(3-phenoxy-phenylamino)-methyl]-pyrrolidin-3-ylamine]
4 | 0.0101 to 0.1 |  |  | 0.0186 | N#Cc1c[nH]c2ncnc(N3CC[C@](N)(CNC(=O)c4ccc(Cl)cc4F)C3)c12 [Example 99, N-{[(3S)-3-amino-1-(5-cyano-7H-pyrrolo[2,3-d]pyrimidin-4-yl)pyrrolidin-3-yl]methyl}-4-chloro-2-fluorobenzamide]
5 | 0.0101 to 0.1 |  | 0.0105 |  | Cc1c[nH]c2ncnc(N3CCC(N)(CNc4cccc(F)c4F)C3)c12 (stereo not shown) [Example 32, 3-{[(2,3-difluorophenyl)amino]methyl}-1-(5-methyl-7H-pyrrolo[2,3-d]pyrimidin-4-yl)pyrrolidin-3-amine]
6 | 0.00251 to 0.01 |  |  | 0.00447 | CCc1c[nH]c2ncnc(N3CC[C@](N)(CNC(=O)c4cccc(Cl)c4)C3)c12 [Example 133]
7 | 0.0101 to 0.1 |  | 0.0154 |  | Cc1c[nH]c2ncnc(N3CCC(N)(CNc4ccccc4S(=O)(=O)N4CC[C@@H](F)C4)C3)c12 (stereo partly drawn) [Example 15, 3-{[(2-{[(3R)-3-fluoropyrrolidin-1-yl]sulfonyl}phenyl)amino]methyl}-1-(5-methyl-7H-pyrrolo[2,3-d]pyrimidin-4-yl)pyrrolidin-3-amine]
8 | 0.0101 to 0.1 |  | 0.0161 |  | Cc1c[nH]c2ncnc(N3CCC(N)(CNc4ccc(C#N)c(Cl)c4)C3)c12 (stereo not shown) [Example 22, 4-({[3-amino-1-(5-methyl-7H-pyrrolo[2,3-d]pyrimidin-4-yl)pyrrolidin-3-yl]methyl}amino)-2-chlorobenzonitrile]
9 | 0.0101 to 0.1 |  | 0.0135 |  | COc1cc(NCC2(N)CCN(c3ncnc4[nH]cc(C)c34)C2)cc(C(F)(F)F)c1 (stereo not shown) [Example 30, 3-({[3-methoxy-5-(trifluoromethyl)phenyl]amino}-methyl)-1-(5-methyl-7H-pyrrolo[2,3-d]pyrimidin-4-yl)pyrrolidin-3-amine]
10 | 0.00251 to 0.01 |  |  | 0.00267 | N[C@]1(CNC(=O)c2ccc(F)cc2)CCN(c2ncnc3[nH]cc(Cl)c23)C1 [Example 78, N-{[(3S)-3-amino-1-(5-chloro-7H-pyrrolo[2,3-d]pyrimidin-4-yl)pyrrolidin-3-yl]methyl}-4-fluorobenzamide]
11 | 0.00251 to 0.01 |  |  | 0.00433 | CCCc1c[nH]c2ncnc(N3CC[C@@](N)(CNC(=O)c4cc(C)on4)C3)c12 [Example 95, N-{[(3R)-3-amino-1-(5-propyl-7H-pyrrolo[2,3-d]pyrimidin-4-yl)pyrrolidin-3-yl]methyl}-5-methylisoxazole-3-carboxamide]
12 | 0.00251 to 0.01 |  |  | 0.00346 | N[C@]1(CNC(=O)c2cccc(F)c2F)CCN(c2ncnc3[nH]cc(Cl)c23)C1 [Example 81, N-{[(3S)-3-amino-1-(5-chloro-7H-pyrrolo[2,3-d]pyrimidin-4-yl)pyrrolidin-3-yl]methyl}-2,3-difluorobenzamide]
13 |  |  | 0.123 |  | N-{[3-amino-1-(5-methyl-7H-pyrrolo[2,3-d]pyrimidin-4-yl)pyrrolidin-3-yl]methyl}pyrimidin-2-amine [Example 58]
14 | 0.0101 to 0.1 |  | 0.0105 |  | Cc1c[nH]c2ncnc(N3CCC(N)(CNc4ccc(S(=O)(=O)NCc5ccccc5)cc4)C3)c12 (stereo not shown) [Example 12, 4-({[3-amino-1-(5-methyl-7H-pyrrolo[2,3-d]pyrimidin-4-yl)pyrrolidin-3-yl]methyl}amino)-N-benzylbenzenesulfonamide]
15 | 0.00251 to 0.01 |  |  | 0.00691 | N[C@]1(CNC(=O)c2cccc(F)c2Cl)CCN(c2ncnc3[nH]cc(Cl)c23)C1 [Example 124, N-{[(3S)-3-amino-1-(5-chloro-7H-pyrrolo[2,3-d]pyrimidin-4-yl)pyrrolidin-3-yl]methyl}-2-chloro-3-fluorobenzamide]
16 | 0.00025 to 0.0025 |  |  | 0.000979 | Cc1c[nH]c2ncnc(N3CC[C@](N)(CNC(=O)c4ccc(F)cc4F)C3)c12 [Example 97, N-{[(3S)-3-amino-1-(5-methyl-7H-pyrrolo[2,3-d]pyrimidin-4-yl)pyrrolidin-3-yl]methyl}-2,4-difluorobenzamide]
17 | 0.0101 to 0.1 | 0.0504 |  |  | Cc1c[nH]c2ncnc(N3CCC(N)(COc4cccc(C(F)(F)F)c4)C3)c12 (stereo not shown) [Example 60, 1-(5-Methyl-7H-pyrrolo[2,3-d]pyrimidin-4-yl)-3-(3-trifluoromethyl-phenoxymethyl) pyrrolidin-3-ylamine]
18 | 0.0101 to 0.1 |  |  | 0.0175 | CCc1c[nH]c2ncnc(N3CC[C@](N)(CNC(=O)c4c(F)ccc(F)c4F)C3)c12 [Example 132]
19 | 0.0101 to 0.1 |  |  | 0.029 | Cc1cccc(F)c1C(=O)NC[C@@]1(N)CCN(c2ncnc3[nH]cc(Cl)c23)C1 [Example 122]
20 | 0.0101 to 0.1 |  | 0.0101 |  | Cc1c[nH]c2ncnc(N3CCC(N)(CNc4ccccc4N4CCOCC4)C3)c12 (stereo not shown) [Example 29, 1-(5-methyl-7H-pyrrolo[2,3-d]pyrimidin-4-yl)-3-{[(2-morpholin-4-ylphenyl)amino]methyl}pyrrolidin-3-amine]

The remaining lines, values behind:

Row | Compound | IC50 [1] [µM] | IC50 [2] [µM] | IC50 [3] [µM] | IC50 [4] [µM]
21 | Cc1c[nH]c2ncnc(N3CC[C@](N)(COc4cccc(C(F)(F)F)c4)C3)c12 [Example 61, (3R)-1-(5-methyl-7H-pyrrolo[2,3-d]pyrimidin-4-yl)-3-{[3-(trifluoromethyl)-phenoxy]methyl}pyrrolidin-3-amine] | 0.0101 to 0.1 | 0.0335 |  | 
22 | NC1(CNc2cccc(C(F)(F)F)c2)CCN(c2ncnc3[nH]cnc23)C1 (stereo not shown) [Example 14, 1-(9H-purin-6-yl)-3-({[3-(trifluoromethyl)phenyl]amino}-methyl)pyrrolidin-3-amine] | 0.101 to 10 |  | 0.108 | 
23 | N-{[3-amino-1-(1H-pyrrolo[2,3-b]pyridin-4-yl)pyrrolidin-3-yl]methyl}-5-chloropyrimidin-2-amine [Example 59] |  |  | 0.0035 | 
24 | N#Cc1c[nH]c2ncnc(N3CCC(N)(CNc4ccc5c(c4)CNCC5)C3)c12 (stereo not shown) [Example 39, 4-{3-amino-3-[(1,2,3,4-tetrahydroisoquinolin-7-ylamino)methyl]pyrrolidin-1-yl}-7H-pyrrolo[2,3-d]pyrimidine-5-carbonitrile] | 0.101 to 10 |  | 4.1 | 
25 | Cc1cccc(C(=O)NC[C@@]2(N)CCN(c3ncnc4[nH]cc(Cl)c34)C2)c1Cl [Example 119] | 0.00251 to 0.01 |  |  | 0.00785
26 | N[C@]1(CNC(=O)c2ccc(Cl)cc2)CCN(c2ncnc3[nH]cc(Cl)c23)C1 [Example 70, N—(((S)-3-amino-1-(5-chloro-7H-pyrrolo[2,3-d]pyrimidinechlorobenzamide (70)-4-yl)pyrrolidin-3-yl)methyl)-4] | 0.00251 to 0.01 |  |  | 0.00544
27 | CCc1c[nH]c2ncnc(N3CC[C@](N)(CNc4cc(C)on4)C3)c12 [Example 1, N—(((S)-3-amino-1-(5-ethyl-7H-pyrrolo[2,3-d]pyrimidin-4-yl)pyrrolidin-3-yl)methyl)-5-methylisoxazol-3-amine] | 0.0101 to 0.1 |  | 0.0154 | 
28 | Cc1c[nH]c2ncnc(N3CCC(N)(CNc4cccc(C(F)(F)F)c4F)C3)c12 (stereo not shown) [Example 3] | 0.00025 to 0.0025 |  | 0.0012 | 
29 | N#Cc1n[nH]c2ncnc(N3CCC(N)(CNc4cccc(Cl)c4F)C3)c12 (stereo not shown) [Example 7, 4-(3-amino-3-((3-chloro-2-fluorophenylamino)methyl)pyrrolidin-1-yl)-1H-pyrazolo[3,4-d]pyrimidine-3-carbonitrile] | 0.0101 to 0.1 |  | 0.0523 | 
30 | Cc1n[nH]c2ncnc(N3CCC(N)(CNc4cccc(Cl)c4F)C3)c12 (stereo not shown) [Example 41, 3-{[(3-chloro-2-fluorophenyl)amino]methyl}-1-(3-methyl-1H-pyrazolo[3,4-d]pyrimidin-4-yl)pyrrolidin-3-amine] | 0.0101 to 0.1 |  | 0.0134 | 
31 | Cc1c[nH]c2ncnc(N3CCC(N)(CNc4cccc5c4CCCC5)C3)c12 (stereo not shown) [Example 35, 1-(5-methyl-7H-pyrrolo[2,3-d]pyrimidin-4-yl)-3-[(5,6,7,8-tetrahydronaphthalen-1-ylamino)methyl]pyrrolidin-3-amine] | 0.00251 to 0.01 |  | 0.00797 | 
32 | Cc1c[nH]c2ncnc(N3CCC(N)(CNc4ccccc4Oc4ccccc4)C3)c12 (stereo not shown) [Example 20, 1-(5-methyl-7H-pyrrolo[2,3-d]pyrimidin-4-yl)-3-{[(2-phenoxyphenyl)amino]methyl}-pyrrolidin-3-amine] | 0.0101 to 0.1 |  | 0.0155 | 
33 | Cc1c[nH]c2ncnc(N3CCC(N)(CNCCN(C)C)C3)c12 (stereo not shown) [Example 46, N′-{[3-amino-1-(5-methyl-7H-pyrrolo[2,3-d]pyrimidin-4-yl)pyrrolidin-3-yl]methyl}-N,N-dimethylethane-1,2-diamine] | 0.101 to 10 |  | 0.125 | 
